Laboratory results taken from US12391680B2, “Compounds and compositions for the treatment of cystic fibrosis” (FONDAZIONE ISTITUTO ITALIANO DI TECNOLOGIA, priority 2019, dated 2025).

Molecular target: mutant CFTR (Homo sapiens, UniProt P13569)
Assay: Fluorescence assay for CFTR activity (halide-sensitive YFP, HS-YFP)
Type: cell-based
Conditions: CFBE41o- and FRT cells with stable expression of mutant CFTR
Method: Mutant CFTR activity was determined with the functional assay based on the halide-sensitive yellow fluorescent protein, HS—YFP (Galietta et al., FEBS Lett 499:220-224, 2001). CFBE41o- and FRT cells with stable expression of mutant CFTR and HS—YFP were plated on clear-bottom 96-well black microplates (Code 3603, Corning Life Sciences) at a density of 50,000 cells/well and kept at 37° C. in 5% CO2 for 24 hours.
For the corrector assay, cells were treated for further 24 hours with test compounds, vehicle (DMSO), or the positive control VX-809. After treatment, the culture medium was removed and cells in each well were stimulated for 30 min at 37° C. with 60 μL PBS (containing 137 mM NaCl, 2.7 mM KCl, 8.1 mM Na2HPO4, 1.5 mM KH2PO4, 1 mM CaCl2, and 0.5 mM MgCl2) plus forskolin (20 μM) and genistein (50 μM).
For determination of potentiator activity on F508del-CFTR, cells were incubated for 24 hours at 27° C. to allow trafficking of the mutant protein to plasma membrane. Cells were then stimulated with for 30 min with PBS containing forskolin (20 μM) plus the compound to be tested at the desired concentration. For determination of potentiator activity on G551D-CFTR or G1349D-CFTR, cells were directly stimulated with forskolin plus test compound without previous incubation at low temperature. At the time of assay, microplates carrying CFBE41o- or FRT cells were transferred to microplate readers (BMG Labtech) equipped with high-quality excitation (HQ500/20×: 500±10 nm) and emission (HQ535/30M: 535±15 nm) filters for YFP (Chroma Technology). The assay consisted of a continuous 14 s fluorescence reading with 2 s before and 12 s after injection of an iodide-containing solution (165 μL of a modified PBS containing I^− instead of Cl^−; final I^− concentration in the well: 100 mM). Data were normalized to the initial background-subtracted fluorescence. Enhanced CFTR activity, induced by correctors and/or potentiators, results in accelerated I^− influx that in turn causes faster HS—YFP quenching (Pedemonte et al., Mol Pharmacol 68:1736-1746, 2005; Pedemonte et al., J Clin Invest 115:2564-2571, […]). To determine fluorescence quenching rate associated with I^− influx, the final 10 s of data for each well were fitted with an exponential function to extrapolate initial slope (dF/dt).
EC50 obtained are illustrated in Table 1 wherein+: EC50>2 μM; ++: 1.0 μM <EC50<2 μM; +++: EC50<1 μM.

mutant CFTR, sequence (P13569 with tags, fused parts or gaps DEL508-508): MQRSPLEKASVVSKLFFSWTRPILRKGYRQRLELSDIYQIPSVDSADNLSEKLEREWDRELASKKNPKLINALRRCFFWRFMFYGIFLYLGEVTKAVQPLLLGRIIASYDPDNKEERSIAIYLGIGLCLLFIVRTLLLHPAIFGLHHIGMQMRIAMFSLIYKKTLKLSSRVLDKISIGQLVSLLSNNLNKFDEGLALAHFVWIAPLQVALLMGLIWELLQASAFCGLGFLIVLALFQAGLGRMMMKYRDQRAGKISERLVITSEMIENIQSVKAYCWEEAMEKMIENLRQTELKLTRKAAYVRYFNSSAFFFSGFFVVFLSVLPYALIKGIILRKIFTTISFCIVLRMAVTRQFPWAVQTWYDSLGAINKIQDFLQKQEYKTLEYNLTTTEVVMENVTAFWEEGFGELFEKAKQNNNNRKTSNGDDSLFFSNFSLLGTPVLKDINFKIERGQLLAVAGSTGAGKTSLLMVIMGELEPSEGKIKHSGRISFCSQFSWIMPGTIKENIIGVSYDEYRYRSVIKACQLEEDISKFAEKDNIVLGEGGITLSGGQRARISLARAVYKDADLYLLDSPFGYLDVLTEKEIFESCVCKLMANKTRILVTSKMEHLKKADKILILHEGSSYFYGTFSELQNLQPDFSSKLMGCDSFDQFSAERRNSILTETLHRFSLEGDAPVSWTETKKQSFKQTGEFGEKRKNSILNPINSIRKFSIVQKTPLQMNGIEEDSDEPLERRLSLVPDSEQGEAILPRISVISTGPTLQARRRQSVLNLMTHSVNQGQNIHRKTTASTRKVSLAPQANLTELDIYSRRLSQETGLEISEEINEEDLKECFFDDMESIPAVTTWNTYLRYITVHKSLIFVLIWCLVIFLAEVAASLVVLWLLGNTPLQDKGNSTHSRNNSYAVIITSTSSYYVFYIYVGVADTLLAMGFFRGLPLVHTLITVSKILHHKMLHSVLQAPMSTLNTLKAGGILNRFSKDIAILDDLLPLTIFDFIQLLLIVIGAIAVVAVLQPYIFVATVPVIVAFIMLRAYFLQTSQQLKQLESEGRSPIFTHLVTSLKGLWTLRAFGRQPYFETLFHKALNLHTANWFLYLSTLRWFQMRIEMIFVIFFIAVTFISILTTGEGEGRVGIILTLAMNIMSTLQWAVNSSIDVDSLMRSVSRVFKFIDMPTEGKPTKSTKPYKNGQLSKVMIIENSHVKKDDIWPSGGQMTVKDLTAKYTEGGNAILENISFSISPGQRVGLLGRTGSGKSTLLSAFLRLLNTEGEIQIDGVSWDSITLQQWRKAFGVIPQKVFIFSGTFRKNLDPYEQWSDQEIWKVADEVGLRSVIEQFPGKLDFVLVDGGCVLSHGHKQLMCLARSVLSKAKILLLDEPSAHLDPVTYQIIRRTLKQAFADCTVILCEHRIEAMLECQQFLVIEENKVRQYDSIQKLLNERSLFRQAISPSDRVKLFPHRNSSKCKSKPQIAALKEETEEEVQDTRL

EC50 [nM] | Structure (SMILES)
> 2000 | NC(=O)c1sc2ccccc2c1C1CN(S(=O)(=O)c2ccc(F)c(C(F)(F)F)c2)CCO1 (racemic) [compound 038, rac-3-[4-[4-fluoro-3-(trifluoromethyl)phenyl]sulfonylmorpholin-2-yl]benzothiophene-2-carboxamide]
1000 to 2000 | NC(=O)c1sc2ccccc2c1C1CN(S(=O)(=O)c2ccc(Cl)cc2)CCO1 (racemic) [compound 040, rac-3-[4-(4-chlorophenyl)sulfonylmorpholin-2-yl]benzothiophene-2-carboxamide]
1000 to 2000 | COc1cc(S(=O)(=O)N2CCOC(c3c(C(N)=O)sc4ccccc34)C2)ccc1C(F)(F)F (racemic) [compound 045, rac-3-[4-[3-methoxy-4-(trifluoromethyl)phenyl]sulfonylmorpholin-2-yl]benzothiophene-2-carboxamide]
< 1000 | COc1ccc(S(=O)(=O)N2CCOC(c3c(C(N)=O)sc4ccccc34)C2)cc1C(F)(F)F (racemic) [compound 046, rac-3-[4-[4-methoxy-3-(trifluoromethyl)phenyl]sulfonylmorpholin-2-yl]benzothiophene-2-carboxamide]
> 2000 | COc1ccc(S(=O)(=O)N2CCOC(c3c(C(N)=O)sc4ccccc34)C2)cc1[N+](=O)[O-] (racemic) [compound 047, rac-3-[4-(4-methoxy-3-nitro-phenyl)sulfonylmorpholin-2-yl]benzothiophene-2-carboxamide]
> 2000 | COc1cccc(S(=O)(=O)N2CCOC(c3c(C(N)=O)sc4ccccc34)C2)c1 (racemic) [compound 048, rac-3-[4-(3-methoxyphenyl)sulfonylmorpholin-2-yl]benzothiophene-2-carboxamide]
> 2000 | NC(=O)c1sc2ccccc2c1C1CN(S(=O)(=O)c2cccc(OC(F)(F)F)c2)CCO1 (racemic) [compound 049, rac-3-[4-[3-(trifluoromethoxy)phenyl]sulfonylmorpholin-2-yl]benzothiophene-2-carboxamide]
> 2000 | COc1ccccc1S(=O)(=O)N1CCOC(c2c(C(N)=O)sc3ccccc23)C1 (racemic) [compound 050, rac-3-[4-(2-methoxyphenyl)sulfonylmorpholin-2-yl]benzothiophene-2-carboxamide]
< 1000 | NC(=O)c1sc2ccccc2c1C1CN(S(=O)(=O)c2ccc(-c3ccccc3)cc2)CCO1 (racemic) [compound 051, rac-3-[4-(4-phenylphenyl)sulfonylmorpholin-2-yl]benzothiophene-2-carboxamide]
> 2000 | NC(=O)c1sc2ccccc2c1C1CN(S(=O)(=O)c2ccc3ccccc3c2)CCO1 (racemic) [compound 052, rac-3-[4-(2-naphthylsulfonyl)morpholin-2-yl]benzothiophene-2-carboxamide]
> 2000 | COc1ccc(S(=O)(=O)N2CCOC(c3c(C(N)=O)sc4ccccc34)C2)cc1F (racemic) [compound 053, rac-3-[4-(3-fluoro-4-methoxy-phenyl)sulfonylmorpholin-2-yl]benzothiophene-2-carboxamide]
> 2000 | COc1ccc(S(=O)(=O)N2CCOC(c3c(C(N)=O)sc4ccccc34)C2)cc1OC (racemic) [compound 054, rac-3-[4-(3,4-dimethoxyphenyl)sulfonylmorpholin-2-yl]benzothiophene-2-carboxamide]
< 1000 | CN1CCOc2cc(S(=O)(=O)N3CCOC(c4c(C(N)=O)sc5ccccc45)C3)ccc21 (racemic) [compound 057, rac-3-[4-[(4-methyl-2,3-dihydro-1,4-benzoxazin-7-yl)sulfonyl]morpholin-2-yl]benzothiophene-2-carboxamide]
> 2000 | NC(=O)c1sc2ccccc2c1C1CN(S(=O)(=O)C2CCOCC2)CCO1 (racemic) [compound 058, rac-3-[4-tetrahydropyran-4-ylsulfonylmorpholin-2-yl]benzothiophene-2-carboxamide]
> 2000 | COCCS(=O)(=O)N1CCOC(c2c(C(N)=O)sc3ccccc23)C1 (racemic) [compound 059, rac-3-[4-(2-methoxyethylsulfonyl)morpholin-2-yl]benzothiophene-2-carboxamide]
1000 to 2000 | NC(=O)c1sc2ccccc2c1C1CN(S(=O)(=O)c2ccc(S(F)(F)(F)(F)F)cc2)CCO1 (racemic) [compound 060, rac-3-[4-[4-(pentafluoro-lambda6-sulfanyl)phenyl]sulfonylmorpholin-2-yl]benzothiophene-2-carboxamide]
> 2000 | CCCCS(=O)(=O)N1CCOC(c2c(C(N)=O)sc3ccccc23)C1 (racemic) [compound 061, rac-3-[4-butylsulfonylmorpholin-2-yl]benzothiophene-2-carboxamide]

EC50 [nM] | Structure (SMILES)
> 2000 | N#Cc1cccc(S(=O)(=O)N2CCOC(c3c(C(N)=O)sc4ccccc34)C2)c1 (racemic) [compound 062, rac-3-[4-(3-cyanophenyl)sulfonylmorpholin-2-yl]benzothiophene-2-carboxamide]
> 2000 | COC(=O)c1ccc(S(=O)(=O)N2CCOC(c3c(C(N)=O)sc4ccccc34)C2)cc1 (racemic) [compound 063, rac-methyl 4-[2-(2-carbamoylbenzothiophen-3-yl)morpholin-4-yl]sulfonylbenzoate]
> 2000 | CC(C)(C)OC(=O)N1CCC(S(=O)(=O)N2CCOC(c3c(C(N)=O)sc4ccccc34)C2)CC1 (racemic) [compound 064, rac-tert-butyl 4-[2-(2-carbamoylbenzothiophen-3-yl)morpholin-4-yl]sulfonylpiperidine-1-carboxylate]
> 2000 | NC(=O)c1sc2ccccc2c1C1CN(S(=O)(=O)c2ccc([N+](=O)[O-])cc2)CCO1 (racemic) [compound 065, rac-3-[4-(4-nitrophenyl)sulfonylmorpholin-2-yl]benzothiophene-2-carboxamide]
> 2000 | NC(=O)c1sc2ccccc2c1C1CN(S(=O)(=O)c2ccccc2C(F)(F)F)CCO1 (racemic) [compound 066, rac-3-[4-[2-(trifluoromethyl)phenyl]sulfonylmorpholin-2-yl]benzothiophene-2-carboxamide]
> 2000 | NC(=O)c1sc2ccccc2c1C1CN(S(=O)(=O)c2ccccc2OC(F)(F)F)CCO1 (racemic) [compound 067, rac-3-[4-[2-(trifluoromethoxy)phenyl]sulfonylmorpholin-2-yl]benzothiophene-2-carboxamide]
> 2000 | NC(=O)c1sc2ccccc2c1C1CN(S(=O)(=O)c2ccc(O)cc2)CCO1 (racemic) [compound 068, rac-3-[4-(4-hydroxyphenyl)sulfonylmorpholin-2-yl]benzothiophene-2-carboxamide]
< 1000 | CC(C)Oc1ccc(S(=O)(=O)N2CCOC(c3c(C(N)=O)sc4ccccc34)C2)cc1 (racemic) [compound 069, rac-3-[4-(4-isopropoxyphenyl)sulfonylmorpholin-2-yl]benzothiophene-2-carboxamide]
< 1000 | NC(=O)C1=C(C2CN(S(=O)(=O)c3ccc(C(F)(F)F)c(F)c3)CCO2)c2ccccc2S1(=O)=O (racemic) [compound 074, rac-1,1-dioxo-3-[4-[3-fluoro-4-(trifluoromethyl)phenyl]sulfonylmorpholin-2-yl]benzothiophene-2-carboxamide]
> 2000 | Cc1cc(S(=O)(=O)N2CCO[C@@H](c3c(C(N)=O)sc4ccccc34)C2)ccc1F (single isomer, unassigned) [compound 014]
> 2000 | NC(=O)c1sc2ccccc2c1[C@H]1CN(S(=O)(=O)c2ccc(C(F)(F)F)c(F)c2)CCO1 (single isomer, unassigned) [compound 055]
< 1000 | NC(=O)c1sc2ccccc2c1C1CN(S(=O)(=O)c2ccc(C(F)(F)F)c(F)c2)CCO1 (single isomer, unassigned) [compound 056]
> 2000 | Cc1nc2ccc(S(=O)(=O)N3CCO[C@@H](c4c(C(N)=O)sc5ccccc45)C3)cc2o1 (single isomer, unassigned) [compound 070]
> 2000 | Cc1ccc(S(=O)(=O)N2CCO[C@@H](c3c(C(N)=O)sc4ccccc34)C2)cc1F (single isomer, unassigned) [compound 072]
< 1000 | Cc1ccc(S(=O)(=O)N2CCO[C@H](c3c(C(N)=O)sc4ccccc34)C2)cc1F (single isomer, unassigned) [compound 073]
> 2000 | CNC(=O)c1sc2ccccc2c1C1CN(S(=O)(=O)c2c(C)noc2C)CCO1 (stereo not drawn) [compound 075, 3-[4-(3,5-dimethyl-isoxazole-4-sulfonyl)-morpholin-2-yl]-benzo[b]thiophene-2-carboxylic acid methylamide]
